Results published in patent US11624685B2, “Method and system for imaging and analysis of a biological specimen” (The Board of Trustees of the Leland Stanford Junior …, priority 2016, dated 2023).

Tests used:
ArcTRAP mice = assay: ArcTRAP labeling, background recombination; format: in vivo, mouse; details: novel aqueous formulation of 4TM, reduced dosage
Source text: Male ArcTRAP (ArcCreER+/−, Ai14+/−) mice were used for study. 6-7 week old ArcTRAP mice were handled and injected with saline daily for at least 5 days prior to the experiment (including the home cage controls) to minimize the labeling due to handling and injections. The mice were 7-8 weeks old at the time of behavioral labeling. […] The home cage control group remained in their home cage for the whole period. All the chambers were cleaned with 70% ethanol between trials. On experimental day 2, all mice received 5 mg/kg 4TM (IP injection) 3 hours after the behavioral challenge to enable TRAP labeling. All groups, including the home cage controls, received 4-hyroxytamoxifen injections at the same time of the day (2-3 PM). The bedding of all cages were refreshed daily for 48 hours to prevent 4TM retake. All the labeled mice were kept in their home cage for an additional 10 days to allow the full expression of tdTomoto before perfusion.
10 mg of 4TM (Sigma H6278) was first dissolved in 250 μl DMSO. This stock is first diluted in 5 ml of saline containing 2% Tween 80 and then diluted 1:1 again with saline. The final injectable solution contained: 1 mg/ml 4TM, 1% Tween 80 and 2.5% DMSO in saline.

mPFC of Arc-rTag mice = assay: Activity-dependent ribosome profiling of mPFC (microarray, qPCR); format: in vivo, mouse; details: IP fraction, two weeks after labeling
Procedure: Male Arc-rTag mice were trained and labeled with 4TM with the same protocol used in ArcTRAP labeling. After labeling, the mice were returned and kept in their home cage for 14 days to allow full integration of tagged ribosomes.
Immunoaffinity purification of ribosome RNA from mPFC was carried out similarly to a protocol previously described (Sanz et al, Proc Natl Acad Sci USA, 106:13939-13944 (2009)) with minor modifications. For preparation of anti-GFP-conjugated dynabeads, for each sample 50 μl protein G dynabeads (Life Technologies) was first washed with PBST and then incubated with 2 μl anti-GFP antibody (Abcam, ab290) in a total volume of 200 μl PBST. […] RNA samples (all at 100 ng per sample) were processed at the Stanford Protein and Nucleic Acid Biotechnology Facility by one-cycle target preparation, labeling and hybridization to Mouse Gene 2.0 ST Array (Affymetrix), according to the manufacturer's protocol and analyzed by Affymetrix Transcriptiome Analysis Console.
For qPCR analysis, RNA was reverse transcribed using the ABI high capacity cDNA synthesis kit and used in quantitative PCR reactions containing SYBR-green fluorescent dye (ABI). Relative expression of mRNAs was determined after normalization with TBP levels using the ΔΔCt method. […]

## 4-hydroxytamoxifen [4TM]
ArcTRAP mice
  background recombination in ArcTRAP line: eliminate the background recombination

## COC(=O)[C@H]1[C@@H](OC(=O)c2ccccc2)C[C@@H]2CC[C@H]1N2C [cocaine]
mPFC of Arc-rTag mice
  Npas4 transcript enrichment in cocaine-activated cells compared to shock-activated cells: 3 fold
